Data on nine compounds can be found in article PMC5945515, “Measuring glucocorticoid receptor expression in vivo with PET” (Oncotarget, 2018).

Where two headings read alike, the source gives them in different places.

Usually Kd stands for the concentration at which binding is half-saturated.

The target in one series is GR. The note with it: cited from earlier work.
Series [1] is described as follows: PET/CT and biodistribution in tumor naive C57BL6/J mice. It counts as in vivo, mouse.
A short description of series [2]: Log P determination (octanol:water). It counts as physicochemical. How it is done: To a microcentrifuge tube containing 1 mL of octanol:water (1:1 v/v) was added 50 μL of ^18F-GR02 (total activity = 37 MBq). The solution was vortexed vigorously for 30 sec, and the biphasic layers were allowed to separate. The layers were manually pipetted into new microcentrifuge tubes, and the activity of each fraction was read with a dose calibrator. The water fraction contained 1.7 MBq, and the octanol fraction contained 35.3 MBq.

Series [3] is described as follows: PET/CT and biodistribution in tumor naive C57BL6/J mice. The series is classed as in vivo, mouse. How it is done:
All radiotracers were administered via tail vein injection in < 300 μL PBS. Intact male C57BL6/J or nu/nu mice were treated with vehicle or mife. (25 mg/kg) via oral gavage for four days prior to injection with ∼11 MBq of ^18F-GR02. Mice were anesthetized and imaged with a Siemens Inveon small animal PET/CT at dedicated time points post injection. Each mouse was imaged until 20 million coincident events were collected. All imaging data was reconstructed, decay corrected, and analyzed with AMIDE or ASIPro software. Maximum intensity projections were generated with ASIPro software. ASIPro software was also used to draw manual two dimensional regions of interest to calculate SUV data for static or dynamic acquisitions.
(§1) At dedicated time points post injection, mice were humanely euthanized with CO2 (g) asphyxiation and blood and tissues were removed, washed, dried and weighed. The activity associated with each tissue was measured with a gamma counter. The data was decay corrected and expressed as a percentage of the injected dose per gram of tissue with PRISM software.
The source holds these as a separate data set.

The subject of the next series is subcutaneous PC3 tumors. Put plainly: Biodistribution in mice bearing subcutaneous PC3 tumors. The series is classed as in vivo, mouse. The note with it: one hour post injection. How it is done: (§2) All animal experiments were conducted with prior approval from IACUC at UCSF. Five to seven week old male nu/nu, intact or adx C57BL6/J mice were purchased from Charles River. Adx mice were provided drinking water supplemented with 0.9% NaCl (aq.). Male nu/nu mice received a subcutaneous bolus of 1 × 10^7 PC3 or DU145 cells in Matrigel and growth media (1:1 v/v) in the flank for tumor imaging studies with ^18F-GR02. For subrenal capsule tumor implants, 4–6 week old male Rag2 knockout mice (Taconic Farms) were placed under anesthesia with ∼2% isoflurane. A half centimeter dorsal midline incision was performed, and one kidney was gently pulled though the incision by applying pressure to the muscle wall. The kidney capsule was lifted from the parenchyma of the kidney, and PC3 cells (5 × 10^6 in 50 μL PBS) were injected into the pocket under the capsule. […]
(§3) All radiotracers were administered via tail vein injection in < 300 μL PBS. […] All imaging data was reconstructed, decay corrected, and analyzed with AMIDE or ASIPro software. […]
as §1

Series [4] relates to subcutaneous DU145 tumors. Kind of series: Biodistribution in mice bearing subcutaneous DU145 tumors. It counts as in vivo, mouse. The following applies: one hour post injection. On the procedure:
as §2, §3, §1

Series [5] has as its system subrenal capsule PC3 tumors. Kind of series: Biodistribution in mice bearing subrenal capsule PC3 tumors. The series is classed as in vivo, mouse. How it is done:
All animal experiments were conducted with prior approval from IACUC at UCSF. Five to seven week old male nu/nu, intact or adx C57BL6/J mice were purchased from Charles River. Adx mice were provided drinking water supplemented with 0.9% NaCl (aq.). Male nu/nu mice received a subcutaneous bolus of 1 × 10^7 PC3 or DU145 cells in Matrigel and growth media (1:1 v/v) in the flank for tumor imaging studies with ^18F-GR02. For subrenal capsule tumor implants, 4–6 week old male Rag2 knockout mice (Taconic Farms) were placed under anesthesia with ∼2% isoflurane. A half centimeter dorsal midline incision was performed, and one kidney was gently pulled though the incision by applying pressure to the muscle wall. The kidney capsule was lifted from the parenchyma of the kidney, and PC3 cells (5 × 10^6 in 50 μL PBS) were injected into the pocket under the capsule. The kidney was placed back and the skin incision was closed using 3 surgical sutures. The mice were treated once with Carprofen (5–10 mg/kg) to ease recovery. Mice were observed over 24 hours for signs of post-operative pain, bleeding and/or other complications. Tumor progression was followed for 7–14 days after surgery with a 14 T Agilent small animal MRI to identify tumors of suitable size to conduct the biodistribution study.
as §1

The conditions of series [6]: cited from earlier work.
Another series has as its target T1, human GR (Homo sapiens, UniProt P04150).
T1 construct: PC3 and DU145, two human prostate cancer models with endogenous GR expression; endogenous in cells; host or cells: DU145
T1 sequence (P04150 1-777): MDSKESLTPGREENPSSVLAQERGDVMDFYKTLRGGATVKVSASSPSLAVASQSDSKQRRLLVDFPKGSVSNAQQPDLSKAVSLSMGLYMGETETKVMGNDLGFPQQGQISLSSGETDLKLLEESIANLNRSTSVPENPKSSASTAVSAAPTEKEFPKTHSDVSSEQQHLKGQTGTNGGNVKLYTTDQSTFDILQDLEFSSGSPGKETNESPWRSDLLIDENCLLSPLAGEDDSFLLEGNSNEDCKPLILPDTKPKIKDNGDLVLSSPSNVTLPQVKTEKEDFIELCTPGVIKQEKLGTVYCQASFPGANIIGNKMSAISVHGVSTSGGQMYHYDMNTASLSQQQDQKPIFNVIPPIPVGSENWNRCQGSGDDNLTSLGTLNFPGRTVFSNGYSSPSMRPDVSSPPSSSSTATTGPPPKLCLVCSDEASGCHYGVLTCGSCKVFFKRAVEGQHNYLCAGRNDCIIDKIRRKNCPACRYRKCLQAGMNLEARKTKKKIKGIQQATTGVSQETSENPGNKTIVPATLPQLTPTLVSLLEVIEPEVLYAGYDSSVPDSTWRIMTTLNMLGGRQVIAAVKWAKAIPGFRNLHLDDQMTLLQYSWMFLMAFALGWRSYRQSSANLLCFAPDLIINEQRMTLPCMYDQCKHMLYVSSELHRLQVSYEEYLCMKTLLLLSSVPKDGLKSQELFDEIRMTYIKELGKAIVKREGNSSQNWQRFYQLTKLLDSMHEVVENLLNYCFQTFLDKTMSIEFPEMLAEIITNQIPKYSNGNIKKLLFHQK
Kind of series: Competition binding assay on cells, human GR. The note with it: Supplementary Table 1; read-out: KD for human GR. On the procedure: The KD for subfamily 3 group C nuclear hormone receptors was determined on cells by displacing ^3H-steroidal agonists for the respective receptor.
The cold ligands and ^3H-steroids were co-incubated on cells in PBS at room temperature for one hour. Following incubation, the cells were washed twice with ice cold PBS and the unbound activity was retained for analysis. The cells were lysed with 1 mL of 1 M NaOH and collected. Bound and unbound fractions were counted in a liquid scintillation counter and expressed as a percentage of the total activity added per equal relative number of cells. […] The specific binding component was plotted against the log of the competing ligand and curve fit using a non-linear regression algorithm with PRISM software.

Where [7] appears, read: octanol:water 1:1, total activity 37 MBq.
[8] abbreviates: mouse intact, 60 minutes post injection.
The mark [9] stands for this setting: intact male nu/nu mice, vehicle.
[10] abbreviates: mouse adrenalectomized, 60 minutes post injection.

In the case of `C=CCC1Oc2cccc(OC)c2-c2ccc3c(c21)C(C)=CC(C)(C)N3` (stereo not drawn) [[11 C]-Al-438], the Kd on GR (ref PMID 17499506) is 8.1 nM.

`CC12C=CC(=O)C=C1CCC1C2C(O)CC2(C)C1CCC2(O)C(=O)COCCC[18F]` (stereo not drawn) [^18F-GR01] had a bone associated activity in series [1] (intact male C57BL6/J mice, 60 minutes post injection) of approximately 20 % ID/g.

Take `CC12C=CC(=O)C=C1CCC1C2C(O)CC2(C)C1CCC2(O)C(=O)CNC(=O)c1ccc([18F])cc1` (stereo not drawn) [^18F-GR02]: in series [2] (setting [7]), the “activity in the octanol fraction” value amounted to 35.3 MBq and the “activity in the water fraction” value worked out at 1.7 MBq. The “log P (o/w)” value in [2] (octanol:water 1:1 v/v) stood at 1.33. For the same compound, the “fold higher specific binding in liver vs prior GR-targeted radiotracers” value in [3] (compared with literature data of Supplementary Table 2) was 3–10 fold. In series [3] (setting [8]), this compound displayed a Bone of 0.28 ± 0.1 % ID/g, a Brain of 0.06 ± 0.02 % ID/g, a Heart of 0.81 ± 0.5 % ID/g and a Lung of 0.64 ± 0.4 % ID/g. In [3] (setting [8]), the Spleen was found to be 0.63 ± 0.1 % ID/g. Also, the “uptake in subcutaneous PC3 tumors after mife.” value in the series with subcutaneous PC3 tumors (four days prior mife. 25 mg/kg) is 0.18 ± 0.07 % ID/g. The “uptake in subcutaneous PC3 tumors” value with subcutaneous PC3 tumors (setting [9]) is given as 0.37 ± 0.1 % ID/g. In [4] (four days prior mife. 25 mg/kg), the “uptake in subcutaneous DU145 tumors after mife.” value came out at 0.23 ± 0.09 % ID/g. For the same compound, in series [4] (setting [9]), the “uptake in subcutaneous DU145 tumors” value was 0.45 ± 0.2 % ID/g. The “fold higher uptake in renal capsule tumor vs subcutaneous PC3 tumor” value in [5] (mouse, in vivo, sc) is approximately 16 fold. Further, the “uptake in renal capsule PC3 tumor after mife.” value in [5] (pretreatment with mife. 25 mg/kg, 60 minutes post injection) was 2.84 ± 1.8 % ID/g. In addition, in series [5] (vehicle, 60 minutes post injection), the “uptake in renal capsule PC3 tumor” value was found to be 6.24 ± 1.0 % ID/g. Moreover, in series [1] (C57BL6/J mice, intact/adx, vehicle/mife., 60 min post injection), the “uptake in the brain across the treatment arms” value is on record as 0.05–0.2 % ID/g. In series [1] (setting [10]), this compound displayed a Blood of 2.36 ± 1.6 % ID/g, a Bone of 1.25 ± 0.8 % ID/g, a Brain of 0.17 ± 0.05 % ID/g and a Heart of 2.39 ± 0.6 % ID/g. Moreover, in [1] (setting [10]), the Kidney worked out at 13.42 ± 3.1 % ID/g, the Liver was determined as 21.83 ± 3.3 % ID/g, the Lung was 2.15 ± 1.0 % ID/g and the Muscle was determined as 1.15 ± 0.4 % ID/g. In series [1] (setting [10]), this compound registered a Spleen of 1.41 ± 0.6 % ID/g and a Stomach of 5.54 ± 2.4 % ID/g. In series [1] (setting [8]), this compound returned a Blood of 0.83 ± 0.3 % ID/g, a Kidney of 3.96 ± 1.9 % ID/g, a Liver of 7.98 ± 1.5 % ID/g and a Muscle of 0.36 ± 0.3 % ID/g. The compound also yielded a Stomach in series [1] (setting [8]) of 0.62 ± 0.1 % ID/g. The “time of peak accumulation in the liver post injection” value in series [1] (one hour dynamic PET scan, intact male C57BL6/J mouse) was not above 10 min.

As to `C=CCC1Oc2cccc(O[11CH3])c2-c2ccc3c(c21)C(C)=CC(C)(C)N3` (stereo not drawn) [[11 C]-Al-438], the logP o/w in series [6] (ref PMID 17499506) is reported as 6.13.

Regarding `CC#C[C@]1(O)CC[C@H]2[C@@H]3CCC4=CC(=O)CCC4=C3[C@@H](c3ccc(N(C)C)cc3)C[C@@]21C` [mife., mifepristone, reference compound], the “effect on 18F-GR02 uptake in liver, spleen, small intestine and stomach” value in [3] (intact C57BL6/J mice, 25 mg/kg daily oral gavage for four days, one hour post injection) is listed as “statistically significant suppression”. Also, in [1] (adx C57BL6/J mice, mife. pretreatment), the “effect on 18F-GR02 uptake in several tissues, including liver, kidney and stomach” value is given as “suppressed ^18F-GR02 uptake to a statistically significant extent”.

Regarding `CC12C=CC(=O)C=C1CCC1C2C(O)CC2(C)C1CCC2(O)C(=O)COCCCF` (stereo not drawn) [^18F-GR01], the Kd at human GR came to 3.8 nM.

As for `CC12C=CC(=O)C=C1CCC1C2C(=O)CC2(C)C1CCC2(O)C(=O)C[18F]` (stereo not drawn) [21-[18F]-prednisone], in series [6] (ref PMID 3495649), the logP o/w is given as 2.1.

As to `CC12C=CC(=O)C=C1CCC1C2C(O)CC2(C)C1CCC2(O)C(=O)CNC(=O)c1ccc(F)cc1` (stereo not drawn) [^18F-GR02], the Kd at human GR amounted to 15.9 nM.

Take `CC1(C)O[C@@H]2C[C@H]3[C@@H]4CCC5=CC(=O)C=C[C@]5(C)[C@@]4(F)[C@@H](O)C[C@]3(C)[C@]2(C(=O)CF)O1` [21-[18F]-deoxytriamcinolone acetonide]: on GR (ref PMID 1526811), the equilibrium dissociation constant (Kd) was 2.1 nM.
